The results in this text go back to a melting point compilation (Tetko et al.; mined from patent text by program, amines drawn as free bases though some values may be those of a salt).

By melting point is commonly meant the temperature of the solid-liquid transition. `CC#CCOc1ccc(S(=O)(=O)C(C(=O)NO)c2ccc(OC)cc2)cc1` (centres undefined) yielded a melting point of 190 °C. Under `O=C(O)COc1ccc(CN2C(=O)C3(COc4cc5c(cc43)OCCO5)c3ccccc32)cc1` (centres undefined) stands 223 to 224 °C; under `COc1cc(N)c(Cl)cc1C(=O)NCC1CCN(CCCCCCCC(=O)c2ccccc2)CC1`, 138 to 140 °C; under `CCCCc1oc2ccc(C(=O)OC)cc2c1C(=O)c1ccc(OCCCNCC(C)(C)C)cc1`, 61 to 63 °C. Under `CCC1(CC)CN(C(C)(C)C)C(=O)C(CC)(CC)N1OC(=O)c1ccccc1` stands 91 to 93 °C; under `NC1CC(=O)N(Cc2ccccc2)C1=O` (centres undefined), 74 to 77 °C. Consider `C#Cc1c(-c2ccc(F)cc2)nn(-c2ccccc2)c1C(C)C`, for which the melting point is 117 to 118 °C. As for `C/C=C/C(=O)NC(=O)OC(C)(C)C`, the melting point lay within 138 to 139 °C. The value for `O=C(Nc1ccc(-n2nc(C(F)(F)F)cc2C(F)(F)F)cc1)c1cc(F)cc(F)c1F` was 169 to 170 °C; that for `CCCCCCN1C(=O)C(=CC(=O)O)SC1=Nc1ccccc1` was 145 to 146 °C; that for `O=C(Nc1ccc(OCc2ccccn2)nc1)N1CCc2ccc(C(F)(F)F)cc21` was 178 to 179 °C.

`COC(=O)C(CC(C)([N+](=O)[O-])[N+](=O)[O-])C(=O)OC`: the melting point is 44 °C. For `CCN(C(=O)N1CCN(c2ccccc2OC)CC1)c1cc(C)c(C)nc1OC`, the melting point lay in the range of 112 to 113 °C.

Turning to `CCOC(=O)c1ccc(OC)c(OCc2nc(C)c(C)nc2C)c1`, the melting point was found to be 130 °C. `CSC1C(=O)Nc2c(C(=O)c3ccc(F)cc3)cc(Cl)cc21` (centres undefined): the melting point lay within 202 to 204 °C.

In turn, `O=C(O)CCc1cccc(-c2nc(=O)c3ccc(C(F)(F)F)cc3s2)n1` showed a melting point of 193 °C. Consider `COc1ccc2oc3cc(C#N)ccc3c(=O)c2c1`, for which the melting point is 254 to 255 °C. In turn, `COCOc1cc(COc2nn(Cc3ccccc3)cc2C=O)ccc1OCc1nc(-c2ccco2)oc1C` came in with a melting point of 141 to 142 °C. The value for `COc1ccc(C(=O)c2cc(C(=O)c3ccc(OC)cc3)cc(C(=O)c3ccc(OC)cc3)c2)cc1` was 179 to 183 °C; that for `CC(C)c1nc(C(O)(C(F)(F)F)C(F)(F)F)[nH]c1-c1ccc(S(C)(=O)=O)cc1` was 182 to 184 °C; that for `Cc1nc2cc(O)c(C)cc2o1` was 198 to 200 °C.

Consider `Cc1cccc(C)c1C(=O)c1sc(Nc2ccc(N3CCOCC3)cc2)nc1N`, for which the melting point lay within 221 to 223 °C.

On to `CCCC1=C(C#N)C(c2cccc(Cl)c2Cl)c2c[nH]nc2N1` (centres undefined), for which the melting point was found to be 242 °C. Under `COCc1cnc2c(NC(=O)c3c(Cl)cccc3Cl)ccc(C)c2c1-n1ccnc1` stands 179 to 180 °C. Under `COc1cc2nc(N3CCN(C(=O)CCCO)CC3)nc(N)c2cc1OC` stands 241 to 243 °C; under `CCOCC(C)Oc1ccc(CSc2cnn(C(C)(C)C)c(=O)c2Cl)cc1` (centres undefined), 89.2 to 90.2 °C; under `CSc1nc2ccc(C)cc2c(=O)s1`, 114 °C. As to `Cc1cc(C)n(-c2ncc(Br)c(Nc3ccc(Cl)cc3)n2)n1`, the melting point is 144 to 154 °C. The value for `O=C(O)COc1ccc(N2CC(=O)NS2(=O)=O)c(O)c1` was 185 to 188 °C; that for `O=C(Cn1ccnc1)c1ccc(Cl)c(Cl)c1` was 126 to 128 °C; that for `O=C(Nc1ccc(F)cc1)NN(c1ccccc1)c1ccccc1` was 214 °C. For `Cc1ccc(CCCNC(=O)Cc2ccc(OCCN)c([N+](=O)[O-])c2)cc1C`, the melting point was determined as 98 °C. For `C[C@H]1CCCC(C)(C)[C@@H]1[C@H](O)c1ccc(C#N)cc1`, the melting point fell in the range of 106 to 108 °C. Turning to `Cc1cc(C(=O)N2Cc3cccn3Cc3ccccc32)ccc1I`, the melting point was in the range of 152 to 153 °C. Take `CN1CCN(C(=O)OC2c3ccccc3C(=O)N2c2ccc3cnccc3n2)CC1` (centres undefined): the melting point came to 215 °C.

Take `CCCN(CCC)[C@@H]1CCc2cc(CNC(=O)c3ccc(Cl)cc3)ccc2C1`: the melting point fell in the range of 141 to 142 °C. The value for `Cc1cc(C)nc(NC(=O)C(N)Cc2ccccc2)c1` (centres undefined) was 97 °C; that for `CC(C)(C#N)c1c(Cl)cc([N+](=O)[O-])cc1Cl` was 80 °C. In the case of `O=C(O)c1cccc(CN2C(=O)C3(COc4cc5c(cc43)CCO5)c3ccccc32)c1` (centres undefined), the melting point was > 250 °C. Under `CC1(c2ccccc2)OC(C(=O)O)Oc2ccc(Cl)cc21` (centres undefined) stands 144 °C; under `COc1ccc(-c2cc(C)sc2-c2ccc(OC)cc2)cc1`, 93 to 97 °C; under `Cc1ccc(C)c(C2CC(=O)c3c(C)ccnc3C2)c1` (centres undefined), 95 to 96 °C. Under `O=C(O)c1cc(Cl)cc(Cl)c1OC1CCOC1=O` (centres undefined) stands 117 to 120 °C; under `Clc1cc(Cl)c2ocnc2c1`, 98 to 99 °C.

As for `O=C(Nc1ccc2nc(CN3CCOCC3)ccc2c1)c1ccc(-c2ccc(F)cc2)cc1`, the melting point was 211 to 212 °C. Compound `COc1cc(OC)c(C(C)=O)c(O)c1CC=C(C)C` came in with a melting point of 110 to 111 °C. With `CC(=O)NC[C@H]1CN(c2ccc3c(c2)CS(=O)(=O)CC3)C(=O)O1`, the melting point lay in the range of 177 to 179 °C.

Compound `COc1ccc2c(=O)ccn(CCN3CCC(NC(=O)OC(C)(C)C)CC3)c2c1` yielded a melting point of 207 °C. The compound `CCCN1N=C2C(=Cc3ccccc3)CS(=O)CC2C1c1ccccc1` (centres undefined) came in with a melting point of 164 to 166 °C. `Cc1ccc2ncc(Oc3c(Cl)cc(NS(=O)(=O)c4cc(C)c(Cl)cc4Cl)cc3Cl)cc2c1` had a melting point of 228 to 230 °C. For the compound `COc1cc(CC(=O)Nc2ccc(C3CN(C(C)=O)CC3C(=O)O)cc2)ccc1NC(=O)Nc1ccccc1C` (centres undefined), the melting point came out at 242 °C. Regarding `CCCCCNC1=CC(=O)C(=O)c2ccccc21`, the melting point is > 215 °C. In the case of `Cc1nc(C=O)c2n1-c1ccc(Cl)cc1C(c1ccccc1F)=NC2`, the melting point fell in the range of 190 to 192 °C.

For the compound `C#Cc1cnc(OCCC)c(-c2nc3c(CC)nn(CCN4CCOCC4)c3c(=O)[nH]2)c1`, the melting point lay in the range of 137 to 139 °C. The compound `Cc1[nH]c(C(=O)NCCN2CCCCC2)c(C)c1-c1nc2ccc(C(=O)c3ccccc3)cc2[nH]1` registered a melting point of 230 to 237 °C. `CCC(Oc1ccc(Cl)c(C)c1)C(=O)NCc1ccccc1Cl` (centres undefined) had a melting point of 107 to 109 °C. Turning to `CCOC(=O)C=CC(C)=CC=O`, the melting point is 48 to 49 °C. On to `Cc1nc2ccccc2nc1Oc1ccc(O)cc1`, for which the melting point lay within 175 to 178 °C. As for `CC1(C)CCC(C)(C)c2cc(NCc3ccc(C(=O)O)cc3)ccc21`, the melting point fell in the range of 225 to 231 °C. `CN1CCCNC1=Nc1ccccc1N1CCOCC1`: the melting point fell in the range of 138 to 139 °C.

`CCOC(=O)c1nc(C2CC2)nc(N)c1/C=C/[Si](C)(C)C` gave a melting point of 99 to 101 °C. The value for `O=C(O)CCCc1cc2nc(Cl)ccc2n1S(=O)(=O)c1cccc(-c2ccccc2)c1` was 147 to 149 °C. The value for `N=C(Nc1cc(Cl)cc(NC(=O)/C=C/c2ccccc2C(F)(F)F)c1)c1cccs1` was 178 to 179 °C; that for `CON(C)S(=O)(=O)c1ccccc1S(=O)(=O)NC(=O)n1nc(OCC(F)(F)F)n(C)c1=O` was 183 °C; that for `Nc1nc(O)c2c(n1)NCC(CCc1nc(C(=O)N[C@@H](CCC(=O)O)C(=O)O)cs1)C2` (some centres undefined) was 210 to 212 °C. The value for `COc1ccc(-c2cc(C(F)(F)F)n3cnc(C#N)c3n2)cc1` was 192 °C; that for `CS(=O)(=O)C(C#N)=Cc1c(Cl)n(Cc2ccccc2)c2ccccc12` was 206 °C; that for `NC(=O)N1CCN(C(=O)Cc2ccc(Cl)c(Cl)c2)C(CN2CCCC2)C1` (centres undefined) was 206 to 209 °C. The compound `CCOC(=O)C=Cc1cc(C=CC(=O)OCC)cc(Cc2cccnc2)c1` showed a melting point of 94 to 96 °C. The value for `Cc1cc(OCC(=O)O)ccc1NC(=O)c1ccc(N2CCNCC2)cc1` was > 250 °C; that for `COc1cc2c(cc1OC)-c1ncc(C#N)c(=O)n1CC2` was 261 to 262 °C. `CCCOc1ccc(CCCOc2nn(C)cc2CC(=O)O)c(Oc2ncc(C(F)(F)F)cc2Cl)c1` showed a melting point of 95 to 96 °C. In turn, `CSc1nc(-c2nnn(C)n2)c(I)c(C(F)(F)F)n1` gave a melting point of 113 to 118 °C. The value for `CCN(CC)CCNc1ccc(C)c2sc3ccc(O)cc3c(=O)c12` was 254 to 255 °C; that for `CC(C)(C)NC(=O)c1ccc(Cl)nc1` was 108 to 110 °C. The value for `O=C(CS(=O)c1ccc(Cl)cc1)c1ccccc1` (centres undefined) was 129 to 130 °C; that for `COc1ccc2c(c1)c(-c1cc3c(C(=O)NC(C)(C)CO)ccnc3[nH]1)cn2C` was 210 to 212 °C. In the case of `Cn1cc(-c2cccc(N3CCc4c(cc5n4CCCC5)C3=O)c2CO)cc(Nc2ccc(C3CNC3)cn2)c1=O`, the melting point lay within 227 to 229 °C.

As to `CCNc1cc(O)c(C(C)=O)cc1C(C)=O`, the melting point fell in the range of 103 to 104 °C. `COC1(C(=O)Nc2ccc(OC(C)C)c(Cl)c2)CC1`: the melting point lay in the range of 86 to 87 °C. Under `O=C=NCCC12CCCn3c1c(c1ccccc13)CCO2` (centres undefined) stands 89 to 91 °C. Under `O=S(c1nc2ccccc2s1)N1CCOCC1` (centres undefined) stands 93 to 94 °C; under `CCn1nc(OC2CSCCC2=O)c(-c2ccc(F)cc2)c1-c1ccc(S(C)(=O)=O)cc1` (centres undefined), 210 to 211 °C. With `CCCCCCCCCCCCCCCCSCCO`, the melting point came out at 50 °C. Compound `CCOC(=O)CC(NC(=O)c1ccc(Cl)cc1)C(=O)c1cccs1` (centres undefined) returned a melting point of 112 to 113 °C. Under `CCCCCCCCC(=O)Nc1cc([N+](=O)[O-])cc([N+](=O)[O-])c1` stands 72.5 to 73 °C; under `CCOC(=O)CC(=O)CC(=O)c1cccnc1`, 187 to 189 °C. Under `CCCCc1ncc(CSc2ncccc2C(=O)O)n1Cc1ccc(C(=O)O)cc1` stands 155 to 157 °C; under `CCNC(=O)n1cc(F)c(NC(C)=O)nc1=O`, 233 to 235 °C.
